Measured values reported in patent publication US20250249045A1, “COMPOSITIONS AND METHODS RELATED TO EXTRACELLULAR VESICLE THERAPEUTIC DELIVERY PLATFORM” (priority 2022, published 2025).

How the values were obtained:
SARS-CoV-2 pseudovirus [1] = test system: SARS-CoV-2 pseudovirus; set-up: species or system mice; settings: mouse
SARS-CoV-2 pseudovirus [2] = type: cell-based

**Q.** What does the source list for rhACE2?
**A.** pseudovirus signals in lung, ex-vivo fluorescence imaging (SARS-CoV-2 pseudovirus [1]): failed to block SARS-CoV-2 pseudovirus entry; entry of SARS-CoV-2 pseudovirus into ACE2-expressing A549 cells (SARS-CoV-2 pseudovirus [2]): efficiently blocked the infection; pseudovirus neutralization by flow cytometry (SARS-CoV-2 pseudovirus [2]): efficiently neutralized
